What was measured:
SYO1 cells = experiment: FACS cell cycle and Caspase Glo apoptosis in SYO1 cells; assay type: cell-based, human
Method: FIG. 10. ATR inhibitors elicit replication fork stress in SS tumour cells. […] Error bars represent SEM from triplicate experiments. p values were derived from Student's t tests. B. Western blot illustrating PARP1 cleavage in SYO1 cells exposed to VX970 for 24 hours. C. Western blot illustrating H2AX phosphorylation (γH2AX) in SYO1 cells exposed to VX970 (0.1 μM). D. Confocal microspcopy images illustrating H2AX phosphorylation in SYO1 cells exposed to VX970 (0.1 μM, 24 hours). E. Bar chart depicting data from (D). Error bars represent SEM from 100 images. p values were derived from Student's t tests. F. Replication fork speeds in SYO1 cells exposed to 0.1 μM VX970 for two hours. p value was derived from a Student's t test. G. Replication fork speeds in HCT116 cells exposed to 0.1 μM VX970 for two hours in the presence and absence of ectopic expression of a SS18-SSX1 fusion protein. p values were derived from Student's t tests. Expression of SS18-SSX1 or exposure to VX970 reduced fork speed. Combined SS18-SSX1 expression and VX970 exposure enhanced the reduction in fork speed. H and I. FACS plots from SYO1 cells exposed to VX970.

[1] = tested on: synovial sarcoma PDX SA13412; experiment: Synovial sarcoma patient-derived xenograft treatment; assay type: in vivo, mice
[2] = tested on: SS tumour cell lines (HS-SY-II, ASKA, YAMOTO, CME1, SYO1); experiment: Five-day cell viability (CellTiter-Glo) in synovial sarcoma tumour cell lines; assay type: cell-based, human
Source text: FIG. 8. ATR genetic dependency synovial sarcoma tumour cells—part 1. A. ATR siRNA Z scores from the siRNA screens described in FIG. 7, classified according to the cancer histology of tumour cell lines. B. Dose-response survival curves illustrating sensitivity of SS tumour cell lines to the ATR small molecule inhibitor (ATRi) VX970, compared to ATRi resistant HCT116 cells. Cells were exposed to drugs for five days and cell viability estimated using CellTiter-Glo. For each SS tumour cell line, dose response ANOVA p<0.0001 vs. HCT116. C. Dose-response survival curves illustrating sensitivity of SS tumour cell lines to VX970, compared to ATRi resistant ARID1A wild type HCT116 cells (HCT116 ARID1A^+/+) and ARID1A defective HCT116 cells (HCT116 ARID1A^−/−). Cells were exposed to drugs for five days and cell viability estimated using CellTiter-Glo. For each SS tumour cell line and HCT116 ARID1A^−/−, dose response ANOVA p<0.0001 vs. HCT116 ARID1A^+/+. D. VX970 area under the curve (AUC) values in tumour cell lines. ARID1A defective cells indicated as “ARID1A^−/−”, Ewings sarcoma tumour cell lines shown as “EWS”. E. Anti-tumour response in mice bearing established synovial sarcoma PDX, SA13412, to treatment with VX970. Median tumour volumes after the initiation of VX970 treatment are shown. Error bars represent standard error of the mean (SEM). F. Kaplan-Meier survival plot of data from (E). log rank Mantel p=0.026. G. Western blot illustrating expression of synovial sarcoma fusion proteins in HCT116 cells. A SS18-SSX1 variant with the final eight residues of SSX1 deleted (Δ71-78) is shown as d71-78. H. Bar chart illustrating induction of AXIN2 mRNA after expression of synovial sarcoma fusion proteins in HCT116 cells. I-K. Dose-response survival curves illustrating that expression of synovial sarcoma fusion proteins in HCT116 cells causes ATRi sensitivity.
FIG. 9. ATR genetic dependency synovial sarcoma tumour cells—part 2. […] Cells were transfected with ATR siRNAs and cell viability estimated five days later by the use of Cell Titre Glo. Bar chart showing surviving fractions are shown left and middle. Western blot illustrating ATR protein silencing is shown right. Z scores from the siRNA screens described in FIG. 7, classified according to the cancer histology of tumour cell lines. B. Dose-response survival curves illustrating sensitivity of SS tumour cell lines to the ATR small molecule inhibitor (ATRi) VX970, compared to ATRi resistant HCT116 cells and non-tumour cells (HFF1, MCF10A). […]
Having confirmed the sensitivity of SS tumour cell lines to siRNA in validation experiments (FIG. 9A), we assessed the sensitivity of the five SS tumour cell lines to the clinical ATR inhibitor (ATRi), VX970 (Vertex Pharmaceuticals). […]

What does the source list for `CNCc1ccc(-c2cc(-c3nc(-c4ccc(S(=O)(=O)C(C)C)cc4)cnc3N)on2)cc1` [VX-970, 5-[4-(Isopropylsulfonyl)phenyl]-3-(3-{4-[(methylamino)methyl]phenyl}-1,2-oxazol-5-yl)-2-pyrazinamine]?
sub G1 fraction (SYO1 cells; 0.1 μM): increase in the sub G1 fraction; cell cycle, S phase (SYO1 cells; SS tumour cells exposed to VX970 (0.1 μM)): arrest in S phase; apoptosis (Caspase Glo) (SYO1 cells; SYO1 cells): apoptosis, estimated by Caspase Glo, caused by exposure; tumour growth in PDX SA13412 ([1]; established PDX, ANOVA p<0.0001): inhibition of tumour growth; survival time of PDX-bearing mice ([1]; log rank Mantel p=0.026): increase in survival time; sensitivity of SS tumour cell lines vs Ewing's sarcoma and ARID1A defective tumour cells ([2]; AUC and SF50 comparison): VX970 sensitivity comparable; IC50 ([2]; Homo sapiens, 120 h, each of five SS tumour cell lines, five days exposure, read-out: SF50 (concentration required to cause 50% reduction in cell survival)): ~100 nM; sensitivity of SS tumour cell lines vs ARID1A defective HCT116 cells ([2]; five days): as sensitive to VX970 as HCT116 cells; sensitivity of SS tumour cell lines vs ATRi resistant HCT116 cells ([2]; five days, ANOVA p<0.0001): profoundly sensitive to VX970
